What was measured:
[1] = format: in vivo, chicken; conditions: paraquat-treated chickens, 110 μg/mL in water supply D7 to D14
Source text: (§1) All experimental procedures used in the current study were approved by the Ethics and Research Committee of the institution conducting the study. A total of 144 one-day-old Ross 308 male broiler chicks, with an average body weight (BW) of 39 g, were reared from D1 to D21. They were allocated in 72 battery cages (0.5×0.42 m^2) with wire floors (6 chicks/cage) in environmentally controlled rooms. The birds were randomly assigned to treatment pens with similar starting weights. Each cage was equipped with one trough feeder and one drinker. Birds had ad libitum access to mash feeds and water during all study. Average temperature was 33° C. at placement, being reduced by 1° C. every 2 days until 23° C. to provide comfort throughout the study. The lighting program was 18 hours light and 6 hours dark during each 24 hours period throughout the trial.
The experimental design was a completely randomized factorial design, consisting of a placebo or oxidative stress groups thus two experimental treatments, and 12 replicates per treatment with 6 birds for each replicate. The oxidative stress was applied only from D7 to D14, through the supplementation of a xenobiotic, i.e. paraquat dichloride hydrate (Sigma-Aldrich Company Ltd., Dorset, UK), through the water supply system at the dose of 110 μg/mL. […] Body weight (BW) was recorded on D1, D7, D14 and D21. […]

[2] = system: Ross 308 male broiler chicks; assay: Stress, non-adaptation and adaptation scores from gene signatures (RT-qPCR) in the chicken-paraquat model; format: in vivo
Source text: as §1
The experimental design was a completely randomized factorial design, consisting of a placebo or oxidative stress groups thus two experimental treatments, and 12 replicates per treatment with 6 birds for each replicate. The oxidative stress was applied only from D7 to D14, through the supplementation of a xenobiotic, i.e. paraquat dichloride hydrate (Sigma-Aldrich Company Ltd., Dorset, UK), through the water supply system at the dose of 110 μg/mL. This dosage was achieved by using water containers, individually located in each cage. The control group received standard water (placebo) on the same period using similar containers. A starter and grower diets were provided from D1 to D7, and D8 to D21, respectively. The basal diets were standard wheat/corn-soy-based broiler diets, and were formulated to meet or exceed the nutrient requirements of broilers, as recommended by the NRC (1994). Body weight (BW) was recorded on D1, D7, D14 and D21. On D14 and D21, one bird per pen replicate of each treatment was sacrificed for tissue collection. Briefly, 100 mg of tissue (breast, liver and ileum) were immerged in 2-mL Eppendorf tubes containing 1 mL RNAlater® (Sigma-Aldrich), and kept at −20° C. until analysis. RNA extraction and purification was conducted as described in Example 1.
To remove traces of contaminant genomic DNA, 2.5 μg of total RNA was treated with 2.5 U of DNasel (ThermoFischer) in a final volume of […] for 15 min at 25° C. Next, DNase was inhibited by addition of EDTA to a final concentration of 8 mM and incubated for 10 min at 70° C. Half of the DNase-treated RNA sample was reverse transcribed (RT), the other half was kept as no-RT control. RNA was denatured in a total volume of 17.6 μL containing 1.25 μg total RNA, 5 mM of nonanucleotide random primer (dN9) and 0.5 μM each dNTPs (Thermofischer). This mix was heated to 70° C. for 5 min in a thermocycler (SimpliAmp™, Life Technologies). Then, RT-AMV buffer (Life Sciences Advance Technology) was added together with 40 U RNAsine (Promega) and 0.25 U AMV Reverse Transcriptase (RT) (Life Sciences Advance Technology), and the volume was adjusted to 21.6 μL. Primers were hybridized by incubation at 25° C. for 15 min, and extension was conducted for 2 hours at 45° C. in thermocycler. No-RT controls were treated in parallel, but addition of AMV-RT enzyme was omitted.
For the quantitative PCR reaction, 1 μL of cDNA sample diluted to ⅓ was mixed to 2 μL specific primers mix 2.5 mM each and 5 μL of 2× Takyon sybrgreen—No ROX (Eurogentec) in a final volume of 10 μL. Each PCR reaction was set in triplicate. Amplification was conducted on a LC480 LightCycler® Nano (Roche) using 384 well plates and the following program: 1 initial activation cycle at 95° C. for 3 min, then 45 cycles [95° C. for 10 sec; 60° C. for 15 sec; 72° C. for 15 sec]. Specificity of each amplification was monitored by fusion curve technic detecting a single peak corresponding to one single amplicon, consisting in an initial denaturation at 95° C. for 5 sec, followed by ramping from 55 to 95° C. at 0.11° C./sec, and 5 acquisitions per sec. […]

[3] = 4 most conserved genes signature
[4] = twenty-six genes or four most conserved genes signature, FIG. 5, bottom

C[n+]1ccc(-c2cc[n+](C)cc2)cc1 [paraquat, paraquat dichloride hydrate]
body weight change [1]: weight-loss
Adaptation Score (%) ([2]; 4-gene signatures, mean ± SD): 0.0 ± 0.0%
Non-adaptation Score (%) ([2]; 4-gene signatures, mean ± SD): 78.2 ± 29.5%
Stress Score (%) ([2]; 4-gene signatures, mean ± SD): 69.2 ± 21.6%
Adaptation Score (%) [2, 3]: 0%
Non-adaptation Score (%) [2, 3]: 100%
Stress Score (%) ([2]; 4 most conserved genes signature (Anxa1, Anxa2, Chac1, Postn)): 75%
Adaptation Score (%) ([2]; 5-gene signatures, mean ± SD): 0.0 ± 0.0%
Non-adaptation Score (%) ([2]; 5-gene signatures, mean ± SD): 79.4 ± 24.8%
Stress Score (%) ([2]; 5-gene signatures, mean ± SD): 69.2 ± 18.9%
Adaptation Score (%) ([2]; 6-gene signatures, mean ± SD): 0.0 ± 0.0%
Non-adaptation Score (%) ([2]; 6-gene signatures, mean ± SD): 79.8 ± 21.5%
Stress Score (%) ([2]; 6-gene signatures, mean ± SD): 69.2 ± 16.8%
Adaptation Score (%) ([2]; 7-gene signatures, mean ± SD): 0.0 ± 0.0%
Non-adaptation Score (%) ([2]; 7-gene signatures, mean ± SD): 79.9 ± 19.0%
Stress Score (%) ([2]; 7-gene signatures, mean ± SD): 69.2 ± 15.2%
Adaptation Score (%) ([2]; 8-gene signatures, mean ± SD): 0.0 ± 0.0%
Non-adaptation Score (%) ([2]; 8-gene signatures, mean ± SD): 80.0 ± 17.0%
Stress Score (%) ([2]; 8-gene signatures, mean ± SD): 69.2 ± 13.8%
Adaptation Score (%) ([2]; 9-gene signatures, mean ± SD): 0.0 ± 0.0%
Non-adaptation Score (%) ([2]; 9-gene signatures, mean ± SD): 80.0 ± 15.4%
Stress Score (%) ([2]; 9-gene signatures, mean ± SD): 69.2 ± 12.7%
Adaptation Score (%) ([2]; 10-gene signatures, mean ± SD): 0.0 ± 0.0%
Non-adaptation Score (%) ([2]; 10-gene signatures, mean ± SD): 80.0 ± 14.1%
Stress Score (%) ([2]; 10-gene signatures, mean ± SD): 69.2 ± 11.7%
Adaptation Score (%) ([2]; 11-gene signatures, mean ± SD): 0.0 ± 0.0%
Non-adaptation Score (%) ([2]; 11-gene signatures, mean ± SD): 80.0 ± 13.0%
Stress Score (%) ([2]; 11-gene signatures, mean ± SD): 69.2 ± 10.8%
Adaptation Score (%) ([2]; 12-gene signatures, mean ± SD): 0.0 ± 0.0%
Non-adaptation Score (%) ([2]; 12-gene signatures, mean ± SD): 80.0 ± 12.0%
Stress Score (%) ([2]; 12-gene signatures, mean ± SD): 69.2 ± 10.0%
Adaptation Score (%) ([2]; 13-gene signatures, mean ± SD): 0.0 ± 0.0%
Non-adaptation Score (%) ([2]; 13-gene signatures, mean ± SD): 80.0 ± 11.0%
Stress Score (%) ([2]; 13-gene signatures, mean ± SD): 69.2 ± 9.2%
Adaptation Score (%) ([2]; 14-gene signatures, mean ± SD): 0.0 ± 0.0%
Non-adaptation Score (%) ([2]; 14-gene signatures, mean ± SD): 80.0 ± 10.2%
Stress Score (%) ([2]; 14-gene signatures, mean ± SD): 69.2 ± 8.5%
Adaptation Score (%) ([2]; 15-gene signatures, mean ± SD): 0.0 ± 0.0%
Non-adaptation Score (%) ([2]; 15-gene signatures, mean ± SD): 80.0 ± 9.4%
Stress Score (%) ([2]; 15-gene signatures, mean ± SD): 69.2 ± 7.9%
Adaptation Score (%) ([2]; 16-gene signatures, mean ± SD): 0.0 ± 0.0%
Non-adaptation Score (%) ([2]; 16-gene signatures, mean ± SD): 80.0 ± 8.7%
Stress Score (%) ([2]; 16-gene signatures, mean ± SD): 69.2 ± 7.3%
Adaptation Score (%) ([2]; 17-gene signatures, mean ± SD): 0.0 ± 0.0%
Non-adaptation Score (%) ([2]; 17-gene signatures, mean ± SD): 80.0 ± 7.9%
Stress Score (%) ([2]; 17-gene signatures, mean ± SD): 69.2 ± 6.7%
Adaptation Score (%) ([2]; 18-gene signatures, mean ± SD): 0.0 ± 0.0%
Non-adaptation Score (%) ([2]; 18-gene signatures, mean ± SD): 80.0 ± 7.3%
Stress Score (%) ([2]; 18-gene signatures, mean ± SD): 69.2 ± 6.2%
Adaptation Score (%) ([2]; 19-gene signatures, mean ± SD): 0.0 ± 0.0%
Non-adaptation Score (%) ([2]; 19-gene signatures, mean ± SD): 80.0 ± 6.6%
Stress Score (%) ([2]; 19-gene signatures, mean ± SD): 69.2 ± 5.6%
Adaptation Score (%) ([2]; 20-gene signatures, mean ± SD): 0.0 ± 0.0%
Non-adaptation Score (%) ([2]; 20-gene signatures, mean ± SD): 80.0 ± 6.0%
Stress Score (%) ([2]; 20-gene signatures, mean ± SD): 69.2 ± 5.0%
Adaptation Score (%) ([2]; 21-gene signatures, mean ± SD): 0.0 ± 0.0%
Non-adaptation Score (%) ([2]; 21-gene signatures, mean ± SD): 80.0 ± 5.3%
Stress Score (%) ([2]; 21-gene signatures, mean ± SD): 69.2 ± 4.5%
Adaptation Score (%) ([2]; 22-gene signatures, mean ± SD): 0.0 ± 0.0%
Non-adaptation Score (%) ([2]; 22-gene signatures, mean ± SD): 80.0 ± 4.6%
Stress Score (%) ([2]; 22-gene signatures, mean ± SD): 69.2 ± 3.9%
Adaptation Score (%) ([2]; 23-gene signatures, mean ± SD): 0.0 ± 0.0%
Non-adaptation Score (%) ([2]; 23-gene signatures, mean ± SD): 80.0 ± 3.9%
Stress Score (%) ([2]; 23-gene signatures, mean ± SD): 69.2 ± 3.3%
Adaptation Score (%) ([2]; 24-gene signatures, mean ± SD): 0.0 ± 0.0%
Non-adaptation Score (%) ([2]; 24-gene signatures, mean ± SD): 80.0 ± 3.1%
Stress Score (%) ([2]; 24-gene signatures, mean ± SD): 69.2 ± 2.7%
Adaptation Score (%) ([2]; 25-gene signatures, mean ± SD): 0.0 ± 0.0%
Non-adaptation Score (%) ([2]; 25-gene signatures, mean ± SD): 80.0 ± 2.2%
Stress Score (%) ([2]; 25-gene signatures, mean ± SD): 69.2 ± 1.8%
Adaptation Score (%) ([2]; 26-gene signature, mean ± SD): 0.0 ± 0.0%
Non-adaptation Score (%) ([2]; 26-gene signature, mean ± SD): 80.0 ± 0.0%
Stress Score (%) ([2]; 26-gene signature, mean ± SD): 69.2 ± 0.0%
non-adaptation (NA) score [2, 4]: high
stress (S) score [2, 4]: high
